Measured values published in PubChem BioAssay AID1996.
≈ marks a conversion by molar mass, not a printed value.

Conditions: buffer; pH 7.4; 200.0 µM

| Compound | solubility kinetic |
| --- | --- |
| CCN(c1ccccc1)S(=O)(=O)c1ccc(N2CCN(c3ccc(O)cc3)CC2)nc1 | 2.7 µg/mL (≈ 6.16 µM) |
| COc1ccc(NC(=O)CSCc2ccc(C#N)cc2)c(OC)c1 | > 51.4 µg/mL |
| CC1(C)Cc2c(sc3nc(SCC(=O)O)nc(N)c23)CO1 | > 48.8 µg/mL |
| COc1cc(OC)c(NC(=S)NCc2ccc(F)cc2)cc1Cl | 1 µg/mL (≈ 2.82 µM) |
| Oc1cccc(N2Cc3ccccc3C2)c1 | 13 µg/mL (≈ 61.5 µM) |
| O=C(O)c1cc(=O)c2ccccc2[nH]1 | > 28.4 µg/mL |
| COc1ccccc1N1CCN(C(=O)c2cccs2)CC1 | > 45.4 µg/mL |
| O=S(=O)(Nc1ccc(Br)cc1)N1CCOCC1 | > 48.2 µg/mL |
| CCC(CC)N1CCN(C(=O)c2cc(OC)c(OC)c(OC)c2)CC1 | > 52.6 µg/mL |
| S=C(NCc1ccco1)Nc1ccc2c(c1)OCCO2 | > 43.6 µg/mL |
| O=c1[nH]c2ccccc2n1C1=CCNCC1 | > 32.3 µg/mL |
| Cc1cc(Nc2ccc(C)c(Cl)c2)nc(N2CCOCC2)n1 | 7.6 µg/mL (≈ 23.8 µM) |
| O=C(NCc1cccc(C(F)(F)F)c1)c1ccc[nH]1 | > 40.2 µg/mL |
| COC(=O)c1sccc1NC(=O)c1c(F)c(F)c(F)c(F)c1F | < 0.8 µg/mL |
| Cc1cccc(N2CCN(CC(=O)NCc3ccc(Cl)cc3)CC2)c1C | 1.6 µg/mL (≈ 4.3 µM) |
| CCc1c(C)sc(NC(=S)Nc2cccnc2)c1C(=O)OC | > 50.3 µg/mL |
| CNC(=O)Nc1cccc2cccnc12 | > 30.2 µg/mL |
| CSCC(=O)Nc1nc(-c2ccc3c(c2)OCCO3)cs1 | 5.2 µg/mL (≈ 16.1 µM) |
| Cc1cccc(COC(=O)C(Cc2ccccc2)NC(N)=O)c1 (stereo not given) | > 46.9 µg/mL |
| COc1ccc(/C=C/c2noc(-c3ccccc3OC(C)=O)n2)cc1 | 0.6 µg/mL (≈ 1.78 µM) |
| CCc1ccc(-n2c([O-])c(C(C)=O)c(=O)[nH]c2=O)cc1.C[NH+](C)C | 38.5 µg/mL |
| O=C(O)CC(c1ccccc1)N1C(=O)c2ccccc2C1=O (stereo not given) | 43.9 µg/mL (≈ 149 µM) |
| O=C(CN1C(=O)c2ccc([N+](=O)[O-])cc2C1=O)NCc1ccco1 | > 49.4 µg/mL |
| Cl.NCCS | > 17 µg/mL |

| Compound | solubility kinetic |
| --- | --- |
| CN1C(=O)C(c2ccccc2[N+](=O)[O-])C(=O)c2ccccc21 (stereo not given) | > 44.4 µg/mL |
| O=C(O)C1CCCN(S(=O)(=O)c2ccccc2[N+](=O)[O-])C1 (stereo not given) | 36.5 µg/mL (≈ 116 µM) |
| Cc1ccc2nc(NC(=O)COC(=O)c3cccnc3)sc2c1 | 7.5 µg/mL (≈ 22.9 µM) |
| Cc1ccc(CN(C)CC(=O)NC(C)c2ccccc2)cc1 (stereo not given) | > 44.5 µg/mL |
| Cc1nc([N+](=O)[O-])c(C(=O)OCc2ccccc2)n1C | 37.6 µg/mL (≈ 137 µM) |
| NC(=O)C1CCN(C(=O)/C(=C/c2ccccc2)NC(=O)c2ccccc2)CC1 | 53.7 µg/mL (≈ 142 µM) |
| O=C(CN1C(=O)C(=O)N(C2CCCC2)C1=O)NCCc1ccc(F)cc1 | > 54.2 µg/mL |
| COc1ccc(OC)c(S(=O)(=O)NCc2ccccn2)c1 | > 46.3 µg/mL |
| CCOC(=O)Cn1c(=O)cc(C)c2ccccc21 | > 36.8 µg/mL |
| Cc1ccc(CC(=O)O/N=C(\N)c2ccccn2)cc1 | 27.5 µg/mL (≈ 102 µM) |
| OCCC1CN(C2CCSCC2)CCN1C1CCCC1 (stereo not given) | 34.5 µg/mL (≈ 116 µM) |
| CC(C)(C)c1cc(/C=C2\NC(=O)NC2=O)cc(C(C)(C)C)c1O | 6.6 µg/mL (≈ 20.9 µM) |
| COc1ccccc1C(=O)Nc1nc2cc3c(cc2s1)OCO3 | < 0.4 µg/mL |
| CN(CC(=O)Nc1ccc(S(N)(=O)=O)cc1)C1CCCCC1 | > 48.8 µg/mL |
| CC(C)CCN(CCC(C)C)C(=O)Cc1c(O)c2ccccc2[nH]c1=O | 2.7 µg/mL (≈ 7.53 µM) |
| CCCCN(CC)C(=O)c1ccc(Cl)cc1 | 29.5 µg/mL (≈ 123 µM) |
| Cc1nc(NC(=O)CCc2ccccc2)sc1C | 18.7 µg/mL (≈ 71.8 µM) |
| CC1CC(=O)Nc2cc([N+](=O)[O-])ccc2N1 (stereo not given) | > 33.2 µg/mL |
| Cn1cnc(S(=O)(=O)NC2CCN(Cc3c(F)cccc3Cl)CC2)c1 | > 58 µg/mL |
| CCOC(=O)CN/C=C(\C#N)c1ccc(F)cc1 | 36.4 µg/mL (≈ 147 µM) |
| COCc1nnc(NC(=O)C2CC(=O)N(C3CCCCC3)C2)s1 (stereo not given) | > 50.8 µg/mL |
| COc1ccc(NC(=O)CCNC(=O)c2ccco2)cc1OC | 47.3 µg/mL (≈ 149 µM) |
| CC(CCc1ccccc1)NCC(O)c1cccc([N+](=O)[O-])c1.Cl (stereo not given) | > 52.6 µg/mL |
| COc1ccc(/C(N)=N/OC(=O)c2cccs2)cc1 | 35.9 µg/mL (≈ 130 µM) |

| Compound | solubility kinetic |
| --- | --- |
| Cc1ccc(S(=O)(=O)N2CCN(C(=O)COC(=O)COc3cccc(C(F)(F)F)c3)CC2)c(C)c1 | 8.7 µg/mL (≈ 16.9 µM) |
| CC1C(=O)N2CCCc3cc(NC(=O)C4CC4)cc1c32 (stereo not given) | 36.3 µg/mL (≈ 134 µM) |
| COc1cccc(CNC(=O)CNC(=O)c2cccs2)c1 | > 45.7 µg/mL |
| COc1ccc(CNC(=O)Cn2cncn2)cc1OC | > 41.4 µg/mL |
| COc1ccccc1C(=O)NCCC(=O)Nc1ncccc1O | > 47.3 µg/mL |
| O=C(Nc1cccc2cccnc12)c1ccc(Br)cc1Br | < 0.4 µg/mL |
| O=C(Nc1ccc(F)cc1)Oc1ccccc1N1CCOCC1 | 8.1 µg/mL (≈ 25.6 µM) |
| COc1ccc(-n2c(C)c(C)c3c(NCCCN(C)C)ncnc32)cc1 | > 53 µg/mL |
| Cc1cc(C)cc(OCC(=O)Nc2ccncc2)c1 | 36.7 µg/mL (≈ 143 µM) |
| CC1CCC(NC(=O)C2CC(=O)N(c3ccc(Cl)cc3)C2)CC1 (stereo not given) | 2.3 µg/mL (≈ 6.87 µM) |
| Cc1ccc(OCC(=O)NCCNC(=O)c2cnccn2)cc1C | 46.3 µg/mL (≈ 141 µM) |
| CC1CCC2(CC1)NC(=O)N(CC(=O)NCCc1ccccc1)C2=O (stereo not given) | > 51.5 µg/mL |
| CC1CCN(CC#CCOc2ccc(Cl)cc2)CC1.O=C(O)C(=O)O | 16.3 µg/mL |
| CC1(C)CC(=O)C2=C(C1)Nc1ccccc1[S@]2=O | > 39.2 µg/mL |
| CCN(CC)CCC(O)(c1ccccc1)C1CCCCC1 (stereo not given) | 24.3 µg/mL (≈ 83.9 µM) |
| Cc1cccc(NC(=O)CCn2c(=O)oc3ccccc32)c1 | 38.2 µg/mL (≈ 129 µM) |
| COCC1CCN(Cc2nc(-c3ccc(OC)cc3)no2)CC1 | 41 µg/mL (≈ 129 µM) |
| CC1CN(C(=S)Nc2ccc(F)cc2F)CC(C)O1 (stereo not given) | > 43 µg/mL |
| Cc1ccc(S(=O)(=O)N2CCCC(C(=O)NC3CCCC3)C2)cc1 (stereo not given) | 0.5 µg/mL (≈ 1.43 µM) |
| CC1NC(=O)NC1CCCCCC(=O)Nc1ccc(F)c(Cl)c1 (stereo not given) | > 51.3 µg/mL |
| COc1ccc(-c2cc(C(F)(F)F)nc(N)n2)cc1 | 1.4 µg/mL (≈ 5.2 µM) |
| CCOc1ccc(NC(=O)COC(=O)Cc2ccsc2)cc1 | 25.1 µg/mL (≈ 78.6 µM) |
| N#CC1(NC(=O)Cn2cc(C(F)(F)F)ccc2=O)CCCC1 | > 47 µg/mL |
| Cc1ccc([N+](=O)[O-])cc1NC(=S)NCCc1ccccc1 | 39.4 µg/mL (≈ 125 µM) |

| Compound | solubility kinetic |
| --- | --- |
| CC(C(=O)Nc1ccccc1)N1C(=O)c2ccccc2C1=O (stereo not given) | > 44.1 µg/mL |
| O=C(COc1ccccc1Cl)Nc1ccc2c(c1)OCO2 | 1.2 µg/mL (≈ 3.93 µM) |
| CN1c2ccccc2C(=O)/C(=C\Nc2ccc(F)cc2F)S1(=O)=O | 1 µg/mL (≈ 2.85 µM) |
| O=C(O)CSc1nc2ccccc2s1 | > 33.8 µg/mL |
| C/C=C/c1ccc(OCC(O)CN2CCCCCCC2)c(OC)c1 (stereo not given) | 35.2 µg/mL (≈ 106 µM) |
| CC(C)N(C(=O)Nc1ccc2nccnc2c1)C(C)C | 2.3 µg/mL (≈ 8.44 µM) |
| O=C(NCCc1ccccc1)C1COc2ccccc2O1 (stereo not given) | > 42.5 µg/mL |
| O=C(CN1CCCc2ccccc21)NCCc1ccc(F)cc1 | > 46.9 µg/mL |
| O=C(N/N=C/c1c[nH]c2ccccc12)c1ccccc1O | > 41.9 µg/mL |
| Cc1ccccc1C(=O)NC1CCN(CC(=O)N2CCCCC2C)CC1 (stereo not given) | > 53.6 µg/mL |
| Cc1ccc(C(=O)NCC(=O)OCC(=O)c2c(N)n(C)c(=O)n(C)c2=O)cc1C | 7.3 µg/mL (≈ 18.1 µM) |
| O=C(COC(=O)c1cccs1)NCCc1ccc(F)cc1 | 42.2 µg/mL (≈ 137 µM) |
| CCOC(=O)NC(=O)CSc1nc2ccc([N+](=O)[O-])cc2[nH]1 | 22 µg/mL (≈ 67.8 µM) |
| CCN(CC)S(=O)(=O)c1ccc(Oc2ccccc2OC)cc1 | 10 µg/mL (≈ 29.8 µM) |
| CCOC(=O)c1c(NC(=O)COC(=O)c2cnccn2)sc(C)c1C | 16.8 µg/mL (≈ 46.2 µM) |
| N/C(=N\OC(=O)CC1CCCCC1)c1ccc(Cl)cc1 | 0.9 µg/mL (≈ 3.05 µM) |
| CCNC(=S)Nc1cc2oc3ccccc3c2cc1OC | 3.2 µg/mL (≈ 10.7 µM) |
| COC(=O)C1=C(C)NC(=O)NC1c1ccc(-c2ccc(Cl)cc2)o1 (stereo not given) | 4.8 µg/mL (≈ 13.8 µM) |
| CCc1ccc(C(C)NC(=O)c2ccc3c(c2)OCO3)cc1 (stereo not given) | 1.6 µg/mL (≈ 5.38 µM) |
| O=C(COC(=O)c1ccc[nH]c1=O)NC1CCCCC1 | 37 µg/mL (≈ 133 µM) |
| Cc1ccc(CC(=O)Nc2ncc([N+](=O)[O-])s2)cc1 | 6.5 µg/mL (≈ 23.4 µM) |
| O=C(COC(=O)c1cccnc1Cl)c1ccc(OC(F)F)cc1 | 51.2 µg/mL (≈ 150 µM) |
| O=C(Nc1ccc(N2CCCC2)cc1)c1ccc(Br)cc1 | 1.4 µg/mL (≈ 4.06 µM) |
| S=C(NCc1ccc(Cl)cc1)NCc1ccccn1 | 35.1 µg/mL (≈ 120 µM) |

| Compound | solubility kinetic |
| --- | --- |
| CCN1CCN(c2ncnc3scc(-c4ccc(C)cc4)c23)CC1 | > 50.8 µg/mL |
| Nc1ccc2nc(-c3ccccc3)c(-c3ccccc3)nc2c1 | 25.7 µg/mL (≈ 86.4 µM) |
| O=C(CCCCC(=O)N1CCOCCOCCOCC1)OCc1ccccc1 | 56.1 µg/mL (≈ 143 µM) |
| CC(C)CNC(=S)N1CCC(NC(=O)c2ccco2)CC1 | 41.9 µg/mL (≈ 135 µM) |
| O=C1OCCC1Sc1nnc(-c2ccc(Cl)cc2Cl)o1 (stereo not given) | > 49.7 µg/mL |
| O=C(Nc1sc2c(c1C(=O)O)CCCCC2)c1ccccc1 | > 47.3 µg/mL |
| O=C(O)/C=C/c1cnc2ccccc2n1 | > 30 µg/mL |
| O=C(CN1CCN(c2ccccc2)CC1)Nc1scc2c1c(=O)oc1ccccc12 | < 0.3 µg/mL |
| CSC1=C(C#N)C(c2sccc2C)CC(=O)N1 (stereo not given) | > 39.7 µg/mL |
| Cc1ccc2nc(-c3ccc(NC(=O)COCC(=O)O)cc3)sc2c1 | > 53.5 µg/mL |
| CN(C)c1cccc(C(=O)OCC(=O)N2CCc3ccccc3C2)c1 | 27.9 µg/mL (≈ 82.4 µM) |
| CCCOc1ccc(CCCN=C(N)N)cc1Cl.O=S(=O)(O)O | 42.2 µg/mL |
| COC(=O)c1cccc(NC(=S)N2CCN(C)CC2)c1 | 41.9 µg/mL (≈ 143 µM) |
| Cc1cc(=O)[nH]c(SCC(=O)NC2CCCc3ccccc32)n1 (stereo not given) | 32.1 µg/mL (≈ 97.4 µM) |
| Oc1cccc(Nc2nc(N3CCOCC3)nc(N3CCOCC3)n2)c1 | 46.1 µg/mL (≈ 129 µM) |
| COc1ccc(C(=O)Nc2cc(C)nn2-c2ccc(C)cc2)cc1 | > 48.2 µg/mL |
| COc1ccccc1N(CC(=O)N1CCOCC1)S(C)(=O)=O | > 49.3 µg/mL |
| O=C(NCCCO)C(=O)Nc1cc2c3c(c1)CCC(=O)N3CCC2 | 48.8 µg/mL (≈ 147 µM) |
| CN(CC(=O)Nc1cccc(F)c1)C(=O)CC1CC2CCC1C2 (stereo not given) | 4 µg/mL (≈ 12.6 µM) |
| Nc1nc(Nc2ccccc2)nc(C(F)(F)F)n1 | > 38.3 µg/mL |
| CC1(C)C2C(Cl)(Cl)C2(C)c2ccccc2N1C=O (stereo not given) | 38.3 µg/mL (≈ 135 µM) |
| COc1ccc(C(=O)/C=C/Nc2cc(C)ccn2)cc1 | 5.8 µg/mL (≈ 21.6 µM) |
| O=[N+]([O-])c1ccccc1CSc1ccccn1 | 13.7 µg/mL (≈ 55.6 µM) |
| CN(C)C(=O)c1ccc(NC(=O)COC(=O)C2(c3ccccc3)CCCC2)cc1 | 24.3 µg/mL (≈ 61.6 µM) |
